Experiment [1] has as its target T1, SapB (Homo sapiens, UniProt P07602).
T1 construct: made in house; host or cells: E. coli
T1 sequence (P07602 195-273 limits assumed): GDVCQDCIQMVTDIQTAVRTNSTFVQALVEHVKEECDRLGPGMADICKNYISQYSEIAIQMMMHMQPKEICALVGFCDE
Kind of experiment: Fluorescence quenching titration of SapB with ligand (double logarithmic Stern-Volmer analysis). It counts as binding. Conditions: 40 μM SapB, 50 mM phosphate buffer pH 5.5, average of three runs; for Kd: read-out: LogKA of binding by SapB (converted). How it is done: A2E and SapB were prepared and purified according to literature reports. To determine the A2E/protein binding stoichiometry, a fluorescence titration was carried out by incrementally adding small amounts of A2E to a solution of SapB (FIG. 2). […] A double logarithmic plot of
Fluorescence quenching measurements were performed on a Varian Cary Eclipse fluorimeter equipped with a QNW Peltier temperature controller. The experiments were conducted at 25.00±0.01° C. in 50 mM phosphate buffer, pH 5.50 or 7.40 using 278 nm excitation wavelength for sapB emission spectra at 325 nm (FIG. 2) or 444 nm excitation for A2E emission at 602 nm (FIG. 3) with excitation and emission monochromators bandwidth of 5 nm each. The fluorescence quenching data were analyzed using OriginLab software version 8.
The interaction of SapB (prepared as described above) with a variety of ligands was followed by monitoring the quenching of the fluorescence intensities of the protein's tyrosine residues upon binding (FIG. 12 Panels a-f).
For each ligand tested 40 μM SapB in 50 mM phosphate buffer at pH 5.5 was titrated with ligand and quenching was monitored at the fluorescence maxima at 330 nm. […] All of the fluorescence data were analyzed by a double logarithmic Stern-Volmer plot, shown for all ligands, using the emission maxima to determine binding affinity, presented in Table 3, and using the following equation
Materials and Methods—Saposin B (SapB) was prepared and purified as described above. Briefly, SapB solutions in this study were prepared in 50 mM phosphate buffer, pH 5.5. […] Ligand solutions were prepared in 100% dimethylformamide (DMF) to a concentration of 2 mM, with the exception of hydoxychloroquine (HCQ), which was prepared in 50 mM phosphate buffer, pH 5.5. […] 4.2. Fluorescence Spectroscopy. Fluorescence quenching measurements were performed on a Varian Cary Eclipse fluorimeter equipped with a QNW Peltier temperature controller. The binding experiments were conducted at 25.00±0.01° C. in 50 mM phosphate buffer, pH 5.5, using 278 nm excitation wavelength for SapB emission spectra at 330 nm (FIG. 1a-f) with excitation and emission monochromators bandwidth of 5 nm each. Temperature sensitive binding experiments were performed between 20.00±0.01 and 40.00±0.01° C. using 278 nm excitation wavelength for SapB emission spectra at 331 nm, with excitation and emission monochromators bandwidth of 5 nm each. The fluorescence quenching data were analyzed using OriginLab software version 8.

Experiment [2] deals with T2, SapB mutant E69A (Homo sapiens, UniProt P07602, E263A).
T2 construct: is a product of the post-translational cleavage of prosaposin, along with SapA, SapC, and SapD
T2 sequence (P07602 195-273 E263A): T1 sequence (P07602 195-273 limits assumed) with E69A
The experiment can be described thus: Fluorescence binding assay (Stern-Volmer and temperature dependent), E69A with ATO. The settings on record: 25° C.; read-out: KA at 25° C., E69A-ATO. As for the experimental part: The deviation observed for [SapB-ATO]complex from the trend warranted further investigation. In order to examine this deviation, a previously described SapB mutant […] (denoted as […] from here on) was used. Fluorescence studies were performed with […] and ATO as described herein for wild type SapB. […] Isothermal titration calorimetry has shown that [SapB-ATO]complex formation has a larger enthalpic contribution than [SapB-CQ]complex and [SapB-CoQ10]complex. Thus, the shift in binding affinity between [SapB-ATO]complex and [[…]-ATO]complex binding may be due to a shift in the thermodynamics of binding. In order to test this, temperature dependent fluorescence studies were performed with […] and ATO, as well as with SapB and ATO. Fluorescence titration experiments were carried out at five different temperatures for each of the […]-ATO and SapB-ATO experiments (FIG. 14). At each temperature, protein was prepared in phosphate buffer solution and ATO was then added via titration. The quenching of SapB or […] fluorescence was monitored at 330 nm and the KA was calculated via double logarithmic Stern-Volmer analysis. […] Fluorescence Spectroscopy. Fluorescence quenching measurements were performed on a Varian Cary Eclipse fluorimeter equipped with a QNW Peltier temperature controller. […] The fluorescence quenching data were analyzed using OriginLab software version 8.

In experiment [3] the target is T1, SapB. Kind of experiment: Temperature dependent fluorescence binding assay, SapB with ATO. Conditions: 25° C.; read-out: KA at 25° C., SapB-ATO. As for the experimental part:
Isothermal titration calorimetry has shown that [SapB-ATO]complex formation has a larger enthalpic contribution than [SapB-CQ]complex and [SapB-CoQ10]complex. Thus, the shift in binding affinity between [SapB-ATO]complex and [[…]-ATO]complex binding may be due to a shift in the thermodynamics of binding. In order to test this, temperature dependent fluorescence studies were performed with […] and ATO, as well as with SapB and ATO. Fluorescence titration experiments were carried out at five different temperatures for each of the […]-ATO and SapB-ATO experiments (FIG. 14). At each temperature, protein was prepared in phosphate buffer solution and ATO was then added via titration. The quenching of SapB or […] fluorescence was monitored at 330 nm and the KA was calculated via double logarithmic Stern-Volmer analysis. The best-fit plot of InKeq vs. 1/T, where was used to calculate the standard enthalpy, entropy, and Gibb's Free energy of binding for the formation of [[…]-ATO]complex and Materials and Methods-Saposin B (SapB) was prepared and purified as described above. […] Fluorescence Spectroscopy. Fluorescence quenching measurements were performed on a Varian Cary Eclipse fluorimeter equipped with a QNW Peltier temperature controller. […] The fluorescence quenching data were analyzed using OriginLab software version 8.

For experiment [4], the target named is T3, pre-formed [SapB-Ligand]complex (Homo sapiens, UniProt P07602).
T3 construct: is a product of the post-translational cleavage of prosaposin, along with SapA, SapC, and SapD; made in house; host or cells: E. coli
T3 sequence (P07602 195-273 limits assumed): T1 sequence (P07602 195-273 limits assumed)
The experiment can be described thus: Competition / order of addition fluorescence binding with pre-formed SapB complexes. Conditions: A2E fluorescence at 602 nm, excitation 444 nm, pH 5.5. How it is done:
We have reported in an earlier study the binding properties of SapB to CoQ10 (a bone fide substrate). To determine whether it binds to the same binding site on the protein or displaces A2E from SapB, a series of fluorescence titration experiments in the presence and absence of CoQ10 were performed.
An 800 μL, 20 μM SapB to 10 μM CoQ10 complex was made in pH 5.5 50 mM phosphate buffer. The complex was formed at room temperature in a 1 mL glass vial with gentle stirring for 10 minutes. The entire solution was then transferred to a clear fluorescence cuvette. Fluorescence experiments were performed under emission conditions on a Cary Eclipse Fluorescence Spectrophotometer, with an excitation wavelength of 444 nm, emission wavelength range of 500-800 nm, excitation slit width set to 10 nm, and emission slit width set to 10 nm. […] Analysis of A2E binding the SapB-CoQ10 complex was performed by tracking fluorescence intensity at A2E's peak emission wavelength of 602 nm and plotting it against the concentration of A2E added per each injection.
A SapB-ATO complex was formed by adding 20 μL of the experimental stock to 1 mL of the SapB experimental stock for a final volume of 1020 μL in a 1.5 mL Eppendorf tube. […] The entire 1020 μL was then transferred to a clear fluorescence cuvette. […]

Here are results for 9 compounds from patent US10813981B2, “Saposin B binds the lipofuscin bisretinoid A2E and prevents its enzymatic and photo degradation” (Syracuse University, priority 2017, dated 2020).

Where a chain is given by its changes, count along the chain named.

`CC1=C(/C=C/C(C)=C/C=C/C(C)=C/C=C/C=C(C)/C=C/C=C(\C)C=O)C(C)(C)CCC1` [Apocarotenal, apo-carotenal]: in experiment [1], the “LogKA of binding by SapB” value is listed as 4.618. As for `O=C1C(O)=C([C@H]2CC[C@H](c3ccc(Cl)cc3)CC2)C(=O)c2ccccc21` [Atovaquone, atovaquone], the Kd is 58.5 µM in experiment [2], 0.112 µM in experiment [3] and 0.0288 µM in experiment [1].

On to `CCN(CC)CCCC(C)Nc1ccnc2cc(Cl)ccc12` (stereo not drawn) [Chloroquine, chloroquine], for which the Kd in experiment [1] was 70.1 µM. For `COC1=C(OC)C(=O)C(C/C=C(\C)CC/C=C(\C)CC/C=C(\C)CCC=C(C)C)=C(C)C1=O` [Coenzyme Q4], in experiment [1], the “LogKA of binding by SapB” value was 5.103. On the same count and under the same terms, the figure for `COC1=C(OC)C(=O)C(C/C=C(\C)CC/C=C(\C)CC/C=C(\C)CC/C=C(\C)CC/C=C(\C)CC/C=C(\C)CC/C=C(\C)CC/C=C(\C)CCC=C(C)C)=C(C)C1=O` [Coenzyme Q9] is 6.196. Consider `COC1=C(OC)C(=O)C(C/C=C(\C)CC/C=C(\C)CC/C=C(\C)CC/C=C(\C)CC/C=C(\C)CC/C=C(\C)CC/C=C(\C)CC/C=C(\C)CC/C=C(\C)CCC=C(C)C)=C(C)C1=O` [Coenzyme Q10, coenzyme Q10], for which the “A2E binding on titration into SapB pre-complexed with the ligand” value in experiment [4] is reported as “identical fluorescence titration pattern”. In experiment [1], the Kd was 0.0631 µM.

Take `CCN(CCO)CCCC(C)Nc1ccnc2cc(Cl)ccc12` (stereo not drawn) [Hydoxychloroquine, hydroxychloroquine]: in experiment [1], the Kd was 155 µM. Regarding “phosphatidyl-choline [Phosphatidylcholine]”, the “LogKA of binding by SapB” value in experiment [1] is listed as 6.075. On to phosphatidylethanolamine, for which the “LogKA of binding by SapB” value in experiment [1] was 5.227.
